Laboratory results reported in publication PMC7249047, “Search for ABCB1 Modulators Among 2-Amine-5-Arylideneimidazolones as a New Perspective to Overcome Cancer Multidrug Resistance” (Molecules, 2020).
“And” between values parts separate entries of the source, which are not always exact repeats. Equal entries are not always repeated.

Key:
[1] = Cytotoxicity MTT assay, 24 h, MDR cells; format: cell-based; details: mouse; for IC50 at 24 h: MDR cells, MTT, read-out: Cytotoxic effect IC50; for selectivity ratio at 24 h: cytotoxic action on MDR with respect to PAR cells, read-out: SI (selectivity index), cytotoxicity
Protocol: (§1) The cytotoxicity of compounds 7–20 was examined in both aforementioned PAR and MDR mouse T-lymphoma cell lines, using the MTT assay to estimate IC50 values. The selectivity index for cytotoxic action on MDR with respect to PAR cells was calculated (SI, Table 3). […] This range of SI may indicate ABCB1-efflux pump substrate properties for the whole series (7–20), especially distinct in the case of 19 (SI ≤ 0.29), and slightly weaker for 8, 12, 16, and 18.
(§2) L5178 mouse T-cell lymphoma cells (PAR) (ECACC Cat. No. 87111908, obtained from FDA, Silver Spring, MD, USA) were transfected with pHa MDR1/A retrovirus, as previously described by Cornwell et al.. The ABCB1-expressing cell line L5178Y (MDR) was selected by culturing the infected cells with colchicine. The parental L5178 mouse T-cell lymphoma cells and the L5178Y human ABCB1-transfected subline were cultured in McCoy’s 5A medium (Sigma-Aldrich, St Louis, MO, USA) supplemented with 10% heat-inactivated horse serum (Sigma-Aldrich, St Louis, MO, USA), 200 mM L-glutamine (Sigma-Aldrich, St Louis, MO, USA), and a penicillin-streptomycin (Sigma-Aldrich, St Louis, MO, USA) mixture in concentrations of 100 U/L and 10 mg/L, respectively. The cell lines were incubated at 37 °C, in a 5% CO2, 95% air atmosphere.
(§3) Cytotoxicity and antiproliferative assays were performed following the procedure described in the literature. Parental and multidrug-resistant mouse T-lymphoma cells were used to determine the effect of the arylideneimidazolones on the growth of cells. The effects of increasing concentrations of arylideneimidazolones on cell growth were tested in 96-well flat-bottomed microtiter plates. The compounds were diluted in a volume of 100 μL of medium.
(§4) In the case of the mouse T-lymphoma cells, the two-fold serial dilutions were prepared in 100 μL of McCoy’s 5A, horizontally. The parental (PAR) and multidrug-resistant (MDR) mouse T-lymphoma cells were adjusted to a density of 1 × 10^4 cells (for cytotoxic assay) and 6 × 10^3 (for antiproliferative assay) in 100 μL of McCoy’s 5A medium and were added to each well, with the exception of the medium control wells.
(§5) The culture plates were incubated at 37 °C for 24 h (for cytotoxicity assay) and 72 h (for antiproliferative assay); at the end of the incubation period, 20 μL of MTT (thiazolyl blue tetrazolium bromide, Sigma) solution (from a stock solution of 5 mg/mL) were added to each well. After incubation at 37 °C for 4 h, 100 μL of sodium dodecyl sulfate (SDS) (Sigma) solution (10% in 0.01 M HCI) were added to each well and the plates were further incubated at 37 °C overnight. Cell growth was determined by measuring the optical density (OD) at 540/630 nm with a Multiscan EX ELISA reader (Thermo Labsystems, Cheshire, WA, USA).
(§6) Results have been expressed in terms of IC50, defined as the inhibitory dose that reduces the growth of the cells exposed to the tested compounds by 50%, each representing the mean of a minimum of three independent experiments.

[2] = Cytotoxicity MTT assay, 24 h, PAR cells; format: cell-based; details: mouse, parental (PAR) L5178 mouse T-cell lymphoma cells, read-out: Cytotoxic effect IC50
Protocol: as §1, §2, §3, §4, §5, §6

[3] = target: ABCB1 efflux pump (Homo sapiens, UniProt P08183); assay: Rhodamine 123 accumulation assay (flow cytometry); details: for efflux pump inhibiting effect relative to verapamil: 20 µM, same concentration as verapamil; for FAR Quotient (%): FAR of compound related to FAR of VER tested at 20 µM; for FAR (fluorescence activity ratio): rhodamine 123 accumulation, MDR vs PAR mouse T-lymphoma cells
Protocol: The study was carried out on mouse T-lymphoma cell lines, including the parental sensitive line (PAR) and its multidrug-resistant subline (MDR) transfected with the human MDR1 (ABCB1) gene. […] The fluorescence activity ratio (FAR), as a measure of the efflux pump modulating properties, was calculated based on the fluorescence data obtained [23, 24, 25]. […] The parental L5178 mouse T-cell lymphoma cells and the L5178Y human ABCB1-transfected subline were cultured in McCoy’s 5A medium (Sigma-Aldrich, St Louis, MO, USA) supplemented with 10% heat-inactivated horse serum (Sigma-Aldrich, St Louis, MO, USA), 200 mM L-glutamine (Sigma-Aldrich, St Louis, MO, USA), and a penicillin-streptomycin (Sigma-Aldrich, St Louis, MO, USA) mixture in concentrations of 100 U/L and 10 mg/L, respectively.
The potency of the tested compounds as inhibitors of the ABCB1 efflux pump was determined using a fluorescence-based detection system, described previously in the literature [23, 26]. […] The parental (PAR) and multidrug-resistant (MDR) mouse T-lymphoma cells were adjusted to a density of 2 × 10^6/mL, re-suspended in serum-free McCoy’s 5A medium, and distributed in 0.5 mL aliquots into Eppendorf centrifuge tubes. […] The fluorescence intensity of the cell population was measured with a Partec CyFlow flow cytometer (Partec, Munster, Germany). […] The mean fluorescence intensity (%) was calculated for the treated MDR and PAR mouse T-lymphoma cells as compared to the untreated cells.

[4] = system: multidrug-resistant (MDR) mouse T-lymphoma cells; assay: Antiproliferative MTT assay, 72 h, MDR cells; format: cell-based; details: for SI (selectivity index), antiproliferative: MDR with respect to PAR cells; for IC50: Mus musculus, MDR cells, 72 h, MTT, read-out: Antiproliferative effect IC50
Protocol: (§7) The ABCB1-expressing cell line L5178Y (MDR) was selected by culturing the infected cells with colchicine. The parental L5178 mouse T-cell lymphoma cells and the L5178Y human ABCB1-transfected subline were cultured in McCoy’s 5A medium (Sigma-Aldrich, St Louis, MO, USA) supplemented with 10% heat-inactivated horse serum (Sigma-Aldrich, St Louis, MO, USA), 200 mM L-glutamine (Sigma-Aldrich, St Louis, MO, USA), and a penicillin-streptomycin (Sigma-Aldrich, St Louis, MO, USA) mixture in concentrations of 100 U/L and 10 mg/L, respectively.
as §3, §4
(§8) Cell growth was determined by measuring the optical density (OD) at 540/630 nm with a Multiscan EX ELISA reader (Thermo Labsystems, Cheshire, WA, USA).

[5] = target: T1, Pgp (ABCB1) ATPase (Homo sapiens, UniProt P08183); assay: Luminescent Pgp-Glo Assay (Pgp ATPase intrinsic activity); format: biochemical; details: 100 µM, 40 min, 37 °C; substrates stimulate basal activity (>100%)
T1 construct: purchased Promega (Madison, WI, USA)
Protocol: Compounds 11, 12, and 18 were tested at 100 µM on their influence on the ATPase activity of the Pgp pump in the luminescence Pgp-Glo™ Assay, according to previously described methods and protocols. In this assay, luminescence was measured. The Pgp-dependent decreases in luminescence reflect the ATP consumption by Pgp. […] Thus, inhibitors give results <100% of the basal activity, while stimulators/substrates cause a statistically significant increase in the basal activity. […].
The luminescent Pgp-Glo™ Assay System used for determination of the arylideneimidazolone influence on P-glycoprotein activity was purchased from Promega (Madison, WI, USA). The assay was performed in triplicate as described previously. […]. For basal P-gp activity calculation, the membranes were incubated with 100 µM of Na3VO4. The luminescence signal was measured by a microplate reader EnSpire PerkinElmer (Waltham, MA, USA). The statistical significances were calculated using GraphPad Prism 8.0.1 software.

[6] = Safety in vitro, MTS assay in HEK-293 cells; format: cell-based, human; details: human, HEK-293 cells, 50 µM, read-out: HEK-293 cell viability
Protocol: (§9) For safety assay, cells were seeded in 96-well plates at a concentration of 1 × 10^4 cells/well and incubated for 24 h at 37 °C in 5% CO2 atmosphere to reach 50% of confluence. Compounds 11, 12, and 18 were diluted into fresh growth medium and added to the cells at the final concentrations of 0.1–100 μM. The positive control DOX (1 μM) was also added and the cells were incubated for 72 h. The MTS (3-(4,5-dimethylthiazol-2-yl)-5-(3-carboxymethoxyphenyl)-2-(4-sulfophenyl)-2H-tetrazolium) reagent (CellTiter 96® AQueous One Solution Cell Proliferation Assay, Promega, Madison, WI, USA) was added next to each well and incubated for 4 h. The absorbance was measured using a microplate reader (EnSpire, PerkinElmer, Waltham, MA USA) at 490 nm to determine the cells’ viability. The statistical significances were calculated using GraphPad Prism 8.0.1 software.

[7] = system: HEK-293 cells; assay: Safety in vitro, MTS assay in HEK-293 cells; format: cell-based, human; details: highest used concentrations (50 and 100 µM), 72 h
Protocol: as §9

[8] = system: parental (PAR) mouse T-lymphoma cells; assay: Antiproliferative MTT assay, 72 h, PAR cells; format: cell-based; details: read-out: Antiproliferative effect IC50
Protocol: as §7, §3, §4, §8

[9] = concentration 20 µM, VER values for assay group 1 / 2

T1 sequence (P08183 whole entry): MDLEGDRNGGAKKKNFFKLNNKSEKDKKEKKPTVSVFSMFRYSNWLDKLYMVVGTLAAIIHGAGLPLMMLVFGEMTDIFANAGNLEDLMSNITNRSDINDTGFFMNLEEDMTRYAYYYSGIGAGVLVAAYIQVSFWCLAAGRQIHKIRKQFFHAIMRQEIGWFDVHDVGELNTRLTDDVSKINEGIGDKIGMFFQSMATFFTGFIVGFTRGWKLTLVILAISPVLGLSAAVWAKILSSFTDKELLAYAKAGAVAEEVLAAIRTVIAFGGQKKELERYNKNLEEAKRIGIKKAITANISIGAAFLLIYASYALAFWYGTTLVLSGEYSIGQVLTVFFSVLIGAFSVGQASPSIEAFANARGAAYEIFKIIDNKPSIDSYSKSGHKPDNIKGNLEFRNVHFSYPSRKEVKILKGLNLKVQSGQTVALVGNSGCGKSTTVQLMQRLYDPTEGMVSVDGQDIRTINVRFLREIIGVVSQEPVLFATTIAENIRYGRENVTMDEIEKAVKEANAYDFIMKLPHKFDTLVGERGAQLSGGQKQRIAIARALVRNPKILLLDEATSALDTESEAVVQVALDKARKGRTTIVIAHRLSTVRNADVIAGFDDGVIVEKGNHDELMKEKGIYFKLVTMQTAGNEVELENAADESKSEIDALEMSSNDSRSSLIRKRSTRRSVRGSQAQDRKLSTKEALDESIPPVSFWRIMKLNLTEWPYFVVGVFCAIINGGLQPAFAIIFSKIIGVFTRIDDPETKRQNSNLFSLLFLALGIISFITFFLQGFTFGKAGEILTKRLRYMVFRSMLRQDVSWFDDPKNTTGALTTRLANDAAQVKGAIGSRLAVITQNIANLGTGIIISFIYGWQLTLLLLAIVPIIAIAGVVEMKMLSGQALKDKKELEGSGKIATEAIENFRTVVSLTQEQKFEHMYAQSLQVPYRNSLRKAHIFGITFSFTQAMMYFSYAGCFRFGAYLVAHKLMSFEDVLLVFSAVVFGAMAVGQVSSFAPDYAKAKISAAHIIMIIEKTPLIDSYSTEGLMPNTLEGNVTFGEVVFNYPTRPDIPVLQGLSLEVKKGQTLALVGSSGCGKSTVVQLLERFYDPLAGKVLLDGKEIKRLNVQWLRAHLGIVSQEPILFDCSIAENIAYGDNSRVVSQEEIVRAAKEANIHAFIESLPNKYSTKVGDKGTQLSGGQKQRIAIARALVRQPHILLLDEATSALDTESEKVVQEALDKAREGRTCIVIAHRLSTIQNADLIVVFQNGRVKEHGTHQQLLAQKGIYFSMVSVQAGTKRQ
Sequence of ABCB1 efflux pump (P08183 whole entry): as above

| SMILES | IC50 at 24 h [1] | selectivity ratio at 24 h [1] | IC50 at 24 h [2] | efflux pump inhibiting effect relative to verapamil [3] | FAR Quotient (%) ([3]; concentration 2 µM) | FAR (fluorescence activity ratio) ([3]; concentration 2 µM) | FAR Quotient (%) ([3]; concentration 20 µM) | FAR (fluorescence activity ratio) [3, 9] | SI (selectivity index), antiproliferative [4] | IC50 [4] | effect on ABCB1 basal activity (Pgp ATPase) [5] | viability at 72 h, 50 µM [6] | effect on HEK-293 cell viability [7] | IC50 [8] | melting point |
| --- | --- | --- | --- | --- | --- | --- | --- | --- | --- | --- | --- | --- | --- | --- | --- |
| Cl.O=C1N=C(N2CCC(N3CCOCC3)CC2)N/C1=C\c1ccc(Oc2ccccc2)cc1 [Compound 11, (Z)-5-(4-Phenoxybenzylidene)-2-(4-morpholinopiperidin-1-yl)-imidazol-4(5H)-one hydrochloride] | 45.5 µM | 0.86 | 39.1 µM | ~1.5 fold and 1.38–1.46 fold | 7.51% | 1.203 | 146.22% | 23.419 | 0.97 | 25.6 µM | increase in basal activity | 84.2% | significantly decreased HEK-293 cell viability | 24.8 µM |  |
| Cl.O=C1N=C(N2CCC(N3CCOCC3)CC2)N/C1=C\c1ccc2c(c1)Cc1ccccc1-2 [Compound 12, (Z)-5-((9H-Fluoren-2-yl)methylene)-2-(4-morpholinopiperidin-1-yl)-imidazol-4(5H)-one hydrochloride] | 30.8 µM | 0.51 | 15.8 µM |  | 8.88% | 1.161 | 46.23% | 6.045 | 0.78 | 16.2 µM | increased the basal activity |  |  | 12.7 µM | 274 to 276 °C |
| Cl.NC1=N/C(=C\c2ccc3c(c2)Cc2ccccc2-3)C(=O)N1CCCN1CCOCC1 [Compound 18, (Z)-5-((9H-Fluoren-2-yl)methylene)-2-amino-3-(3-morpholinopropyl)-imidazol-4(5H)-one hydrochloride] | 27.8 µM | 0.58 | 16 µM | ~1.5 fold and 1.38–1.46 fold | 7.94% | 1.038 | 138.37% | 18.095 | 1.24 | 10.8 µM | increase in basal activity | 10.3% | significantly decreased HEK-293 cell viability | 13.4 µM | 261 to 263 °C |
